Read-outs that look alike come from different tables or passages of the source. *1 amine or outer side, *2 acyl side, *3 side chain or, on linkers, in order; H or OH if unused. Where a SMILES comes first, the peptide text is derived from it. [ ]: non-standard residue; d: D form. Cysteamide = C(CS[*:3])N[*:1]; βAla = NCCC(=O)O

In assay [1] the test system is Peptide (C4). Kind of assay: Fluorescence titration of VEPEP-4 binding to peptide cargo. Here is the method: (§1) Fluorescence experiments were performed on a PTI spectrofluorimeter at 25° C. in a NaCl 154 mM buffer. Intrinsic Trp-fluorescence of VEPEP-4 was excited at 290 nm and emission spectrum was recorded between 310 and 400 nm, with a spectral band-pass of 2 and 8 nm for excitation and emission, respectively. FITC-fluorescence of labelled-peptide was excited at 492 nm and emission recorded between 500 and 580 nm. For VEPEP-4/peptide interaction, 0.5 μM of FITC-labelled peptide was titrated by increasing concentrations of VEPEP-4. All measurements were corrected for the dilution and curve fitting were performed by using Grafit software (Erithacus).
(§2) VEPEP-4i (SEQ ID No: 1) and VEPEP-4j (SEQ ID No: 2) peptides form stable complexes with peptides. The binding of cargos to VEPEP-4 was monitored by fluorescence spectroscopy using the both intrinsic Trp group of VEPEP-4 (4 Trp-residues) and extrinsic fluorescently labeled cargoes (using Cy5 or FITC). Curve fitting reveal that VEPEP-4 strongly binds the different cargoes with dissociation constant in the nanomolar range (Table 1 and FIG. 1).

Assay [2] has as its system Hela. Kind of assay: cells. Here is the method: Cells were returned to the incubator for 24 hrs.
Effect of VEPEP-4 mediated delivery of doxorubicin has been investigated on cancer cell viability.

Assay [3] deals with HEK2. The experiment in a line: cells. It counts as cell-based. The procedure: (§3) Adherent HS68 fibroblasts, HeLa, PC3, CEM-SS, U20S, MCF-7, and HEK2 cell lines (from American Type Culture Collection (ATCC)), as well as MEF and PBMC, were cultured in Dulbecco's Modified Eagle's Medium supplemented with 2 mM glutamine, 1% antibiotics (streptomycin 10,000 μg/ml, penicillin, 10,000 IU/ml) and 10% (w/v) foetal calf serum (FCS), at 37° C. in a humidified atmosphere containing 5% CO2. Stock solutions of VEPEP-4/peptide particles were prepared by complexing 1 μM peptide with VEPEP-4 peptides at a molar ratio of 1/20 for 30 min at 37° C. Lower concentrations of VEPEP-4-carrier/peptide (from 500 nM to 1 μM) were obtained by serial dilution of the stock complexes in PBS, in order to preserve the same VEPEP-4-carrier/peptide ratio. 150,000 cells seeded in a 35 mm dish the day prior transfection, were grown to 60% confluence and overlaid with 200 μl of preformed complexes, incubated for 3-5 min, then 400 μl of DMEM were added. After 30 min. incubation at 37° C., 1 ml of fresh DMEM containing 16% foetal calf serum (FCS) was added in order to reach a final FCS concentration of 10%, without removing the overlay of VEPEP-4/peptide complexes. Cells were returned to the incubator for 24 hrs. For CDK2 derived peptides cell proliferation was monitored after 24 and 48 hrs. For peptide-targeting integrase, HIV proliferation was analyzed on activated PBMC cells after 3 and 5 days. Data reported are an average of 3 or 4 distinct experiments.
(§4) VEPEP-4 peptides have been used for the delivery of different small fluorescent hydrophobic and charged molecules as well as doxorubicin on different cell lines including primary cell lines and challenging cell lines. VEPEP-4 peptides form stable particles with small aromatic molecules including doxorubicin. Effect of VEPEP-4 mediated delivery of doxorubicin has been investigated on cancer cell viability. […] The impact of carrier peptides to improve cellular uptake of small molecule drugs was estimated by following inhibition of proliferation of cancer cells.

Assay [4] deals with MEF. The experiment in a line: VEPEP-4 mediated delivery of fluorescently labelled peptide (fluorescence microscopy or FACS). It counts as cell-based, Mouse. The settings on record: uptake of fluorescently labelled peptide cargo. The procedure:
as §3
(§5) VEPEP-4 peptides have been used for the delivery of different peptides into different cell lines, including primary cell lines, stem cell lines and challenging cell lines. Peptide delivery was monitored using three approaches, fluorescence spectroscopy and monitoring biological responses (anti proliferation and anti viral responses).
(§6) 1—Fluorescently labelled peptide was visualized in the different cell lines using fluorescence microscopy or FACS sorting (Table 3). In most of the cell lines, the uptake of Cy-5 labelled peptides is more than 70% of the cells.

Assay [5] deals with HIV-1LAI. It counts as cell-based. The settings on record: for IC50: 1LAI. Here is the method: as §3
The anti-HIV activities of the peptides (PC4D, PC4S, PC6D, PC6S) and VEPEP-4/peptides complexes were assayed according to previously described method (Roisin et al, 2004). Phytohemagglutinin-P (PHA-P)-activated peripheral blood mononuclear cells (PBMC) treated by increasing concentrations of peptide (from 100 to 0.1 nM), one hour later, were infected with hundred 50% tissue culture infectious doses (TCID50) per 100,000 cells of the HIV-1-LAI or different resistant strains (Barre-Sinoussi et al, 1983). Viruses were amplified in vitro on PHA-P-activated PBMC. Viral stock was titrated using PHA-P-activated PBMC, and 50% TCID50 were calculated using Kärber's formula (Karber 1931). Samples were maintained throughout the culture, and cell supernatants were collected at day 7 post-infection and stored at −20 C. Viral replication was measured by quantifying RT activity in cell culture supernatants. In parallel, cytotoxicity of the compounds was evaluated in uninfected PHA-P-activated PBMC by colorimetric 3-(4-5 dimethylthiazol-2-yl)2,5 diphenyl tetrazolium bromite (MTT) assay on day 7 (Mossmann 1983). Experiments were performed in triplicate and repeated with another blood donor. […]

Assay [6] in a line: Fluorescence titration of VEPEP-4 binding to small molecule cargo. Here is the method:
as §1
VEPEP-4 peptides also form stable particles with small aromatic molecules including daunomycin, Paclitaxel, doxorubicin, porphyrin and charged molecules including nucleotide, nucleoside and peptide-analogue of nucleic acids or fluorescent dyes. The dissociation constant for small hydrophobic molecule ranges between 0.05 to 2 μM, depending on the nature of the dyes and of the peptides.
Binding of small molecule cargoes has been investigated in detail depending on the nature of the SMH. Several hydrophobic and charges molecules have been use (Daunomycin, Paclitaxel, doxorubicin, porphyrin) and charged molecules (nucleotide, nucleoside and fluorescent dyes).

Assay [7] has as its system MCF7. It counts as cell-based, Human. The procedure: as §3, §4
Assay [8] concerns U2OS. Kind of assay: VEPEP-4 mediated delivery of fluorescently labelled peptide (fluorescence microscopy or FACS). It counts as cell-based, Human. The settings on record: uptake of fluorescently labelled peptide cargo. Here is the method:
as §3, §5, §6

Assay [9] has as its system PBMC. The assay is described as above. It counts as cell-based, Human. The settings on record: uptake of fluorescently labelled peptide cargo. Here is the method: as §3, §5, §6
The subject of assay [10] is Hela. The assay is described as above. It counts as cell-based, Human. The settings on record: uptake of fluorescently labelled peptide cargo. The procedure:
as §3, §5, §6

Assay [11] relates to CEM-SS. The assay is described as above. It counts as cell-based, Human. The settings on record: uptake of fluorescently labelled peptide cargo. The procedure:
as §3, §5, §6

Assay [12] deals with HS-68. Described as above. It counts as cell-based, Human. The conditions noted are these: HS-68, uptake of fluorescently labelled peptide cargo. The procedure: as §3, §5, §6
Assay [13] relates to MCF7. The assay is described as above. The settings on record: MCF7, uptake of fluorescently labelled peptide cargo. It counts as cell-based, Human. Here is the method: as §3, §5, §6
Assay [14] deals with Cyclic peptide (PC4). Kind of assay: Fluorescence titration of VEPEP-4 binding to cyclic peptide cargo. Here is the method: as §1, §2

For orientation: Kd means the free concentration of one partner at which half of the binding sites on the other are occupied at equilibrium, for simple one-to-one binding. Higher therefore signals lower affinity. The term IC50 denotes the concentration that gives 50% inhibition. In the case of `CC(=O)NCCC(=O)N[C@@H](Cc1c[nH]c2ccccc12)C(=O)N[C@@H](Cc1ccccc1)C(=O)N[C@@H](CCCNC(=N)N)C(=O)N[C@@H](CC(C)C)C(=O)N[C@@H](CO)C(=O)N[C@@H](CC(C)C)C(=O)N[C@@H](CCCNC(=N)N)C(=O)N[C@@H](Cc1ccccc1)C(=O)N[C@@H](Cc1c[nH]c2ccccc12)C(=O)NCCS` [Short 4, X1WFRLSLRFW] (Ac-[βAla]WFRLSLRFW-Cysteamide), the Binding result in assay [1], in assay [6] (cargo Doxorubicin), in assay [6] (cargo FAM-guanosine), in assay [6] (cargo porphyrin) and in assay [14] was “yes” each time. Besides, the Kd in assay [1] was 0.01 to 0.02 µM; in assay [6] (cargo Doxorubicin) it was 0.01 µM; in assay [6] (cargo FAM-guanosine), 0.07 µM; in assay [6] (cargo porphyrin), 0.6 µM; in [14] it was 0.05 to 0.1 µM. Moreover, the IC50 turned out to be 0.6 µM in assay [2], 0.5 µM in [3], 0.00037 ± 0.0001 µM in [5] and 0.5 µM in assay [7]. Further, the Efficiency worked out at 67% in assay [4]; 65% in assay [8]; 65% in [9]; 58% in assay [10]; 74% in assay [11]; 87% in [12]. In assay [13], the Efficiency was 78%.
As to `CC(=O)NCCC(=O)N[C@@H](Cc1c[nH]c2ccccc12)C(=O)N[C@@H](Cc1c[nH]c2ccccc12)C(=O)N[C@@H](CCCNC(=N)N)C(=O)N[C@@H](CC(C)C)C(=O)N[C@@H](CCCNC(=N)N)C(=O)N[C@@H](CO)C(=O)N[C@@H](Cc1c[nH]c2ccccc12)C(=O)N[C@@H](Cc1ccccc1)C(=O)N[C@@H](CCCNC(=N)N)C(=O)NCCS` [Short 3, X1WWRLRSWFR] (Ac-[βAla]WWRLRSWFR-Cysteamide), the Binding result in [1], in assay [6] (cargo Doxorubicin), in assay [6] (cargo FAM-guanosine), in [6] (cargo porphyrin) and in assay [14] was “yes” each time. The Kd in [1] is 0.01 to 0.02 µM; in [6] (cargo Doxorubicin), 0.1 µM; in [6] (cargo FAM-guanosine), 0.1 µM; in [6] (cargo porphyrin), 0.7 µM; in assay [14], 0.05 to 0.1 µM. Also, the IC50 was determined as 1.2 µM in assay [2], 1.1 µM in assay [3] and 0.9 µM in assay [7].
As for `CC(=O)NCCC(=O)N[C@@H](Cc1c[nH]c2ccccc12)C(=O)N[C@@H](Cc1ccccc1)C(=O)N[C@@H](CCCNC(=N)N)C(=O)N[C@@H](CC(C)C)C(=O)N[C@@H](CO)C(=O)N[C@@H](CC(C)C)C(=O)N[C@@H](CCCNC(=N)N)C(=O)N[C@@H](Cc1ccccc1)C(=O)N[C@@H](Cc1c[nH]c2ccccc12)C(=O)N[C@@H](CCCNC(=N)N)C(=O)NCCS` [VEPEP-3j, X1WFRLSLRFWR] (Ac-[βAla]WFRLSLRFWR-Cysteamide), the Binding entry in assay [1], in [6] (cargo Doxorubicin), in [6] (cargo FAM-guanosine), in assay [6] (cargo porphyrin) and in [14] was “yes” throughout. In addition, the Kd in [1] is 0.01 to 0.02 µM; in assay [6] (cargo Doxorubicin), 0.07 µM; in assay [6] (cargo FAM-guanosine) it was 0.05 µM; in assay [6] (cargo porphyrin), 0.5 µM; in assay [14], 0.05 to 0.1 µM. Also, the IC50 worked out at 0.8 µM in assay [2], 0.3 µM in [3], 0.00017 ± 7e-05 µM in [5] and 0.2 µM in [7]. For the same compound, the Efficiency in [4] was 70%; in [8] it was 81%; in [9], 80%; in [10], 62%; in assay [11] it was 65%; in [12], 80%. The same compound returned an Efficiency in assay [13] of 65%.
Turning to `COc1cccc2c1C(=O)c1c(O)c3c(c(O)c1C2=O)C[C@@](O)(C(=O)CO)C[C@@H]3O[C@H]1C[C@H](N)[C@H](O)[C@H](C)O1` [Doxo, doxorubicin, reference compound], the half-inhibitory concentration (IC50) in assay [2] (Homo sapiens, HeLa) was 25 µM; in assay [3] (HEK2, Free drug, read-out: IC50), 10 µM. Further, the “fold more efficient when complexed with VEPEP-4” value in assay [3] (complexed versus free drug, cancer cells of Table 5) was 25 fold.
With “TWFTEWFT (Ac-TWFTEWFT-Cysteamide; SMILES CC(=O)N[C@H](C(=O)N[C@@H](Cc1c[nH]c2ccccc12)C(=O)N[C@@H](Cc1ccccc1)C(=O)N[C@H](C(=O)N[C@@H](CCC(=O)O)C(=O)N[C@@H](Cc1c[nH]c2ccccc12)C(=O)N[C@@H](Cc1ccccc1)C(=O)N[C@H](C(=O)NCCS)[C@@H](C)O)[C@@H](C)O)[C@@H](C)O) [PC4S, scrambled peptide, control of PC4D, reference compound]”, the anti viral activity entry in assay [5] (scrambled peptide, PBMC infected by HIV-1LAI) is on record as “do not show any anti viral activity”.

These data come from patent US9834581B2, “Cell penetrating peptides for intracellular delivery of molecules” (AADIGEN, LLC, priority 2012, dated 2017).
